Results as given in article PMC12042115 (mLife, 2025).
Like-named read-outs stand apart in the source and are kept apart here.

Tested on: wild‐type BCG cells
Type: cell-based, M. bovis BCG

With `O=C(Oc1ccc(Cl)cc1)c1ccc(N2CCOCC2)c([N+](=O)[O-])c1` [GDI‐5755] the ClpB upregulation (2‐day treated cells) was 1.56 fold, the detected proteome downregulated (2‐day treatment, 2×MIC) was ~ 37.9% and the ClpB upregulation (3‐day treated cells) was 1.47 fold. For the same compound, the “Mean_Ratio (GDI5755_3d vs DMSO_3d)” value (3 d) was 0.7, the “number of proteins accumulated (upregulated)” value (Day 2) was 216 proteins and the “proteome remaining downregulated into the third day” value (Day 2 and Day 3) was 29.1%. The “number of proteins accumulated (upregulated)” value (Day 3) was 188 proteins, the EthA upregulation (GDI‐5755‐treated cells) was over 1.4 fold and the “Mean_Ratio GDI5755_3d: DMSO_3d” value (Table S5, BCG_0001 Chromosomal replication initiator protein DnaA) was 0.8. The “Mean_Ratio GDI5755_3d: DMSO_3d” value (Table S5, BCG_0066 Fatty-acid-coa ligase fadD34) was 0.7, the “Mean_Ratio GDI5755_3d: DMSO_3d” value (Table S5, BCG_0101c Serine hydroxy methyltransferase) was 0.8 and the “Mean_Ratio GDI5755_3d: DMSO_3d” value (Table S5, BCG_0207 MCE-family protein mce1B) was 0.7. The “Mean_Ratio GDI5755_3d: DMSO_3d” value (Table S5, BCG_0208 MCE-family protein mce1C) was 0.8, the “Mean_Ratio GDI5755_3d: DMSO_3d” value (Table S5, BCG_0209 MCE-family protein mce1D) was 0.7 and the “Mean_Ratio GDI5755_3d: DMSO_3d” value (Table S5, BCG_0210 MCE-family lipoprotein lprK) was 0.7. The “Mean_Ratio GDI5755_3d: DMSO_3d” value (Table S5, BCG_0211 MCE-family protein mce1F) was 0.7, the “Mean_Ratio GDI5755_3d: DMSO_3d” value (Table S5, BCG_0442 Probable fatty-acid-CoA ligase fadD30) was 0.7 and the “Mean_Ratio GDI5755_3d: DMSO_3d” value (Table S5, BCG_0495c Enoyl-CoA hydratase echA2) was 0.5. For the same compound, the “Mean_Ratio GDI5755_3d: DMSO_3d” value (Table S5, BCG_0546c cmaA2) was 0.7, the “Mean_Ratio GDI5755_3d: DMSO_3d” value (Table S5, BCG_0547c UPF0336 protein) was 0.8 and the “Mean_Ratio GDI5755_3d: DMSO_3d” value (Table S5, BCG_0591c Possible oxidoreductase) was 0.8. The “Mean_Ratio GDI5755_3d: DMSO_3d” value (Table S5, BCG_0692c Methoxy mycolic acid synthase 3 mmaA3) was 0.6, the “Mean_Ratio GDI5755_3d: DMSO_3d” value (Table S5, BCG_0693c Methoxy mycolic acid synthase 2 mmaA2) was 0.7 and the “Mean_Ratio GDI5755_3d: DMSO_3d” value (Table S5, BCG_1048 UTP--glucose-1-phosphate uridylyltransferase) was 0.7. For the same compound, the “Mean_Ratio GDI5755_3d: DMSO_3d” value (Table S5, BCG_1203c Probable enoyl-CoA hydratase echA11) was 0.7, the “Mean_Ratio GDI5755_3d: DMSO_3d” value (Table S5, BCG_1311c Uncharacterized protein) was 0.8 and the “Mean_Ratio GDI5755_3d: DMSO_3d” value (Table S5, BCG_1534 Macrolide-transport ATP-binding protein ABC transporter) was 0.8. The “Mean_Ratio GDI5755_3d: DMSO_3d” value (Table S5, BCG_1579c Mycocerosic acid synthase-like polyketide synthase) was 0.7, the “Mean_Ratio GDI5755_3d: DMSO_3d” value (Table S5, BCG_1619c Possible inv protein) was 0.7 and the “Mean_Ratio GDI5755_3d: DMSO_3d” value (Table S5, BCG_1699 Possible chalcone synthase pks10) was 0.8. The “Mean_Ratio GDI5755_3d: DMSO_3d” value (Table S5, BCG_1896 Alanine and proline-rich secreted protein Apa) was 0.6, the “Mean_Ratio GDI5755_3d: DMSO_3d” value (Table S5, BCG_1922c Chorismate mutase) was 0.7 and the “Mean_Ratio GDI5755_3d: DMSO_3d” value (Table S5, BCG_1923c Mycolyltransferase Ag85B) was 0.7. For the same compound, the “Mean_Ratio GDI5755_3d: DMSO_3d” value (Table S5, BCG_1962 Probable lipase lipD) was 0.6, the “Mean_Ratio GDI5755_3d: DMSO_3d” value (Table S5, BCG_2254 ER-bound oxygenase mpaB) was 0.8 and the “Mean_Ratio GDI5755_3d: DMSO_3d” value (Table S5, BCG_2260 Malonyl CoA-acyl carrier protein transacylase fabD) was 0.7. The “Mean_Ratio GDI5755_3d: DMSO_3d” value (Table S5, BCG_2310 Probable aminotransferase) was 0.8, the “Mean_Ratio GDI5755_3d: DMSO_3d” value (Table S5, BCG_2317 Cutinase) was 0.7 and the “Mean_Ratio GDI5755_3d: DMSO_3d” value (Table S5, BCG_2546c Putative peptidoglycan hydrolase) was 0.8. The “Mean_Ratio GDI5755_3d: DMSO_3d” value (Table S5, BCG_2550 ERCC4 domain-containing protein) was 0.7, the “Mean_Ratio GDI5755_3d: DMSO_3d” value (Table S5, BCG_2886c Possible penicillin-binding lipoprotein) was 0.6 and the “Mean_Ratio GDI5755_3d: DMSO_3d” value (Table S5, BCG_2977 Methyltransferase FkbM domain-containing protein) was 0.7. For the same compound, the “Mean_Ratio GDI5755_3d: DMSO_3d” value (Table S5, BCG_3009c 3-isopropylmalate dehydratase large subunit) was 0.6, the “Mean_Ratio GDI5755_3d: DMSO_3d” value (Table S5, BCG_3111 alcohol dehydrogenase adhD) was 0.8 and the “Mean_Ratio GDI5755_3d: DMSO_3d” value (Table S5, BCG_3296 LytR family transcriptional regulator) was 0.8. The “Mean_Ratio GDI5755_3d: DMSO_3d” value (Table S5, BCG_3375 Possible acid phosphatase) was 0.8, the “Mean_Ratio GDI5755_3d: DMSO_3d” value (Table S5, BCG_3658 Probable conserved lipoprotein lpqF) was 0.8 and the “Mean_Ratio GDI5755_3d: DMSO_3d” value (Table S5, BCG_3731c Possible chalcone synthase pks11) was 0.7. For the same compound, the “Mean_Ratio GDI5755_3d: DMSO_3d” value (Table S5, BCG_3772 Lipid II isoglutaminyl synthase subunit MurT) was 0.7, the “Mean_Ratio GDI5755_3d: DMSO_3d” value (Table S5, BCG_3866c Mycolyltransferase Ag85A) was 0.8 and the “Mean_Ratio GDI5755_3d: DMSO_3d” value (Table S5, BCG_3882c Trehalose-2-sulfate acyltransferase PapA2) was 0.8. The “Mean_Ratio GDI5755_3d: DMSO_3d” value (Table S6, BCG_0130 decarboxylase) was 1.5, the “Mean_Ratio GDI5755_3d: DMSO_3d” value (Table S6, BCG_0289c Heat stress-induced ribosome-binding protein A, acr2) was 3.9 and the “Mean_Ratio GDI5755_3d: DMSO_3d” value (Table S6, BCG_0347c Acetoacetate decarboxylase) was 1.3. For the same compound, the “Mean_Ratio GDI5755_3d: DMSO_3d” value (Table S6, BCG_0389 Chaperone protein DnaK) was 1.5, the “Mean_Ratio GDI5755_3d: DMSO_3d” value (Table S6, BCG_0390 Protein GrpE/HSP-70 cofactor) was 1.4 and the “Mean_Ratio GDI5755_3d: DMSO_3d” value (Table S6, BCG_0391 Chaperone protein DnaJ) was 1.5. The “Mean_Ratio GDI5755_3d: DMSO_3d” value (Table S6, BCG_0422c Chaperone protein ClpB) was 1.5, the “Mean_Ratio GDI5755_3d: DMSO_3d” value (Table S6, BCG_0463c Uncharacterized protein) was 1.4 and the “Mean_Ratio GDI5755_3d: DMSO_3d” value (Table S6, BCG_0726c Possible conserved membrane protein mmpS5) was 1.4. The “Mean_Ratio GDI5755_3d: DMSO_3d” value (Table S6, BCG_0774 Possible protease IV sppA (Endopeptidase IV)) was 1.4, the “Mean_Ratio GDI5755_3d: DMSO_3d” value (Table S6, BCG_0909 Cyclase) was 1.3 and the “Mean_Ratio GDI5755_3d: DMSO_3d” value (Table S6, BCG_0993 Bifunctional 2-hydroxyhepta-2,4-diene-1,7-dioate isomerase) was 1.3. For the same compound, the “Mean_Ratio GDI5755_3d: DMSO_3d” value (Table S6, BCG_1028c Probable acetyl-/propionyl-coa carboxylase, accD2) was 1.4 and the “Mean_Ratio GDI5755_3d: DMSO_3d” value (Table S6, BCG_1037 Two-component sensor kinase MprB) was 1.2.
